# Reference: patent publication US10022355B2, “Diaryl and arylheteroaryl urea derivatives as modulators of the 5-HT2A serotonin receptor useful for the prophylaxis and treatment of REM sleep behavior disorder” (Axovant Sciences GmbH, priority 2015, dated 2018)
# “Also recorded” adds a separate entry of the source.
# How the values were obtained:
# [1] = Completed Phase 1 and Phase 2 clinical studies of nelotanserin (originally for primary insomnia); assay type: in vivo, human
# Description: Nelotanserin: Nelotanserin (RVT-102), previously known as APD-125, is a potent and selective 5HT2a receptor inverse agonist, and is currently being developed as an oral treatment for REM sleep behavior disorder in patients with DLB. Originally being developed for primary insomnia, seven clinical studies have been completed to date that included five Phase 1 and two Phase 2 studies, and 792 individuals have been exposed to nelotanserin over the dose range of 20 to 160 mg and up to 14 days.
# [2] = elderly patients; cited from earlier work
Structure (SMILES),sleep maintenance and consolidation ([1]; Phase 1 and Phase 2 studies),slow wave sleep ([1]; Phase 1 and Phase 2 studies),"safety and tolerability profile ([1]; five Phase 1 and two Phase 2 studies, 792 individuals exposed, dose range 20 to 160 mg, up to 14 days)",number of sleep phase transitions ([1]; previous clinical studies),side effects [2]
COc1ccc(NC(=O)Nc2ccc(F)cc2F)cc1-c1c(Br)cnn1C [nelotanserin],improves sleep maintenance and consolidation,increases slow wave sleep,favorable safety and tolerability profile; also recorded: acceptable safety and tolerability profile,reduces the number of sleep phase transitions,
"O=C1CN=C(c2ccccc2Cl)c2cc([N+](=O)[O-])ccc2N1 [Clonazepam, clonazepam]",,,,,"confusion, daytime sedation, and increased risk of falls"
